This note sets out measurements from publication PMC9404985, “Development of Dicationic Bisguanidine-Arylfuran Derivatives as Potent Agents against Gram-Negative Bacteria” (Antibiotics, 2022).

The structures appear in SMILES notation.

Series [1] can be described thus: Cytotoxicity assay (PrestoBlue) MCF-7. The following applies: human, MCF-7 cells (breast cancer cell line), 24 h incubation. The format is cell-based. The method, then: (§1) The cytotoxicity levels of all compounds were evaluated against human Michigan Cancer Foundation-7 (MCF-7) and Hepatoma G2 cell line (HepG2) cell lines. MCF-7 is an extensively characterized breast cancer cell line isolated in 1970 [41], while HepG2 cells were derived from a hepatoma in 1975 [42]. Both cell lines grow robustly during in vitro culture and have been widely used for cytotoxicity testing. Cells of hepatic origin, such as HepG2, are of particular relevance for toxicity studies as many drugs accumulate in the liver during metabolic conversion. Cells were grown in Dulbecco’s Modified Eagle Medium supplemented with 10% fetal calf serum and kept in exponential growth, as previously reported. Before the assay, cells were reseeded into 96-well microtiter plates at a density allowing continued exponential growth and let to settle for 24 h. The compounds were added from a stock solution in DMSO, for a final concentration of 0.3% v/v of the solvent in the culture medium. After 24 h of incubation in presence of the compound, cell viability was assayed using PrestoBlue Cell Viability Reagent (resazurin-based solution, ThermoFisher, Waltham, MA, USA) according to the manufacturer’s instructions. […] Each assay contained a DMSO control at the equivalent starting concentration, positive control (uninhibited cell growth) and negative control (cell medium only). Survival was expressed as percentage of the solvent-only control. […] The Selectivity Index (SI) for each compound and bacterial strain was calculated as the ratio between the mean of the EC50 values for the two human cell lines and the EC50 for the bacterial strain in question ((EC50 MCF-7 + EC50 HepG2)/2)/EC50 bacterial strain).

Series [2] in a line: Cytotoxicity assay (PrestoBlue) HepG2. It is filed as cell-based. Conditions: human, HepG2 cells (hepatoma cell line), 24 h incubation. As to the method: as §1
Series [3] has as its system B. subtilis (NBRC/ATCC #111470). The series can be described thus: Antibacterial resazurin assay, laboratory strain. Conditions: for EC50 / EC90: Bacillus subtilis, ATCC111470, 18 h; for EC50: read-out: Bsu EC50; for EC90: read-out: Bsu EC90; for Selectivity index B. subtilis: mean of MCF-7 and HepG2 EC50 over bacterial EC50, laboratory strain. For orientation: The colour change of resazurin is a common sign of viable cells or microbes.

The test system of series [4] is E. coli MG1655 (CGSC #6300). Briefly: Antibacterial resazurin assay, laboratory strain. The following applies: for EC50 / EC90: Escherichia coli, MG1655, 18 h; for EC50: read-out: Eco EC50; for EC90: read-out: Eco EC90; for Selectivity index E. coli: mean of MCF-7 and HepG2 EC50 over bacterial EC50, laboratory strain.
The test system of series [5] is P. putida (NBRC/ATCC #100650). Briefly: Antibacterial resazurin assay, laboratory strain. The following applies: for EC50 / EC90: Pseudomonas putida, ATCC100650, 18 h; for EC50: read-out: Ppu EC50, laboratory strain, 18 h, 37 °C, AlamarBlue; for EC90: read-out: Ppu EC90; for Selectivity index P. putida: mean of MCF-7 and HepG2 EC50 over bacterial EC50, laboratory strain.

Series [6] relates to P. carotovorum (NBRC/ATCC #3380). The series can be described thus: Antibacterial resazurin assay, laboratory strain. Conditions: for EC50 / EC90: Pectobacterium carotovorum, ATCC3380, 18 h; for EC50: read-out: Pcar EC50, laboratory strain, 18 h, 37 °C, AlamarBlue; for EC90: read-out: Pcar EC90; for Selectivity index P. carotovorum: mean of MCF-7 and HepG2 EC50 over bacterial EC50, laboratory strain.

In series [7] the test system is P. caledonica (NBRC/ATCC #102488). Briefly: Antibacterial resazurin assay, laboratory strain. The following applies: for EC50 / EC90: Paraburkholderia caledonica, ATCC102488, 18 h; for EC50: read-out: Pcal EC50; for EC90: read-out: Pcal EC90; for Selectivity index P. caledonica: mean of MCF-7 and HepG2 EC50 over bacterial EC50, laboratory strain.

By EC50 is commonly meant the concentration giving half of the maximal effect. As usually defined, the EC90 is the concentration at which the effect reaches the 90% level.

Turning to `N=C(N)Nc1ccc(-c2ccc(-c3ccc(NC(=N)N)cc3C(F)(F)F)o2)c(C(F)(F)F)c1` [Compound 5, 2,5-Bis(4-guanidino-2-trifluoromethylphenyl)furan], the EC50 at 24 h in series [1] came to 23.2 µM; in series [2], 69 µM. The EC50 in series [3] was above 300 µM; in series [4], 29.4 µM; in series [5], 290 µM; in series [6], 185 µM; in series [7], above 300 µM. Further, the EC90 in series [3] is above 300 µM; in series [4] it was 59.1 µM; in series [5] it was 319 µM; in series [6] it was 233 µM; in series [7], above 300 µM. In series [4], the “Selectivity index E. coli” value came out at 1.6. Further, the “Selectivity index P. putida” value in series [5] was found to be 0.2. Further, the “Selectivity index P. carotovorum” value in series [6] was determined as 0.2.
Take `Cc1cc(Nc2c(N)c(=O)c2=O)ccc1-c1ccc(-c2ccc(Nc3c(N)c(=O)c3=O)cc2C)o1` [Compound 13, 2,5-Bis(2-methyl-4-((3,4-dioxo-2-(amino)cyclobut-1-en-1-yl)amino)phenyl)furan]: the figures for the EC50 at 24 h in series [1] and in series [2] were above 1000 µM and 137 µM, respectively. For the same compound, the concentration giving a half-maximal response (EC50) in series [3], in series [4], in series [5], in series [6] and in series [7] was above 300 µM throughout. Moreover, the 90% effect concentration (EC90) in series [3], in series [4], in series [5], in series [6] and in series [7] was above 300 µM throughout.
In the case of `N=C(N)Nc1ccc(-c2ccc(C(=O)N3CCc4ccccc43)o2)c(Cl)c1` [Compound 20, (5-(2-chloro-4-guanidinophenyl)furan-2-yl)(indolin-1-yl)methanone], a half-maximal effect in series [1] (EC50 at 24 h) was put at 37.8 µM. In series [2], the EC50 at 24 h was 28.5 µM. In series [3], the EC50 stood at 24.5 µM, the EC90 came out at 38.4 µM and the “Selectivity index B. subtilis” value was 1.4. Further, in series [4], the EC50 stood at 61.7 µM, the EC90 was 106 µM and the “Selectivity index E. coli” value is recorded as 0.5. In addition, in series [5], the EC50 is above 300 µM and the EC90 was above 300 µM. Also, in series [6], the EC50 is 159 µM, the 90% effect concentration (EC90) amounted to 187 µM and the “Selectivity index P. carotovorum” value came out at 0.2. Also, in series [7], the EC50 was found to be 129 µM, the concentration for an effect of 90% (EC90) was above 300 µM and the “Selectivity index P. caledonica” value is listed as 0.3.
Take `Nc1c(Nc2ccc(-c3ccc(-c4ccc(Nc5c(N)c(=O)c5=O)cc4C(F)(F)F)o3)c(C(F)(F)F)c2)c(=O)c1=O` [Compound 14, 2,5-Bis(2-trifluoromethyl-4-((3,4-dioxo-2-(amino)cyclobut-1-en-1-yl)amino)phenyl)furan]: the 50% effective concentration (EC50) at 24 h in series [1] was 173 µM; in series [2], 185 µM. Also, the EC50 is above 300 µM in series [3]; above 300 µM in series [4]; above 300 µM in series [5]; above 300 µM in series [6]; 90.4 µM in series [7]. Also, the EC90 in series [3] is above 300 µM; in series [4], above 300 µM; in series [5], above 300 µM; in series [6] it was above 300 µM; in series [7], 305 µM. For the same compound, the “Selectivity index P. caledonica” value in series [7] was 2.0.
As for `N#Cc1cc(NC(=N)N)ccc1-c1ccc(-c2ccc(NC(=N)N)cc2C#N)o1` [Compound 7, 2,5-Bis(2-cyano-4-guanidinophenyl)furan], a half-maximal response in series [1] (EC50 at 24 h) required 46 µM. Also, the midpoint of the response in series [2], the EC50 at 24 h, lay at 78.9 µM. For the same compound, in series [3], the EC50 stood at 146 µM, the EC90 is 562 µM and the “Selectivity index B. subtilis” value is on record as 0.4. In addition, in series [4], the EC50 amounted to 59.3 µM, the EC90 is 350 µM and the “Selectivity index E. coli” value worked out at 1.1. In series [5], the concentration for a half-maximal effect (EC50) worked out at 24.5 µM, the EC90 worked out at 51.5 µM and the “Selectivity index P. putida” value is 2.5. In addition, in series [6], the half-maximal effective concentration (EC50) came out at 212 µM, the EC90 came out at 268 µM and the “Selectivity index P. carotovorum” value is recorded as 0.3. Besides, in series [7], the concentration for a half-maximal effect (EC50) is above 300 µM and the 90% effect concentration (EC90) is above 300 µM.
On to `Nc1c(Nc2ccc(-c3ccc(-c4ccc(Nc5c(N)c(=O)c5=O)cc4Cl)o3)c(Cl)c2)c(=O)c1=O` [Compound 11, 2,5-Bis(2-chloro-4-((3,4-dioxo-2-(amino)cyclobut-1-en-1-yl)amino)phenyl)furan], for which the EC50 at 24 h turned out to be 508 µM in series [1] and 183 µM in series [2]. The EC50 in series [3] was above 300 µM; in series [4] it was above 300 µM; in series [5], above 300 µM; in series [6] it was above 300 µM; in series [7], 19 µM. Besides, the EC90 in series [3] was above 300 µM; in series [4], above 300 µM; in series [5], above 300 µM; in series [6] it was above 300 µM; in series [7], 60.1 µM. Also, the “Selectivity index P. caledonica” value in series [7] is on record as 18.2.
`Cc1nc(NC(=N)N)ccc1-c1ccc(-c2ccc(NC(=N)N)nc2C)o1` [Compound 9, 2,5-Bis(6-guanidino-2-methylpyridin-3-yl)furan]: the EC50 at 24 h in series [1] was above 1000 µM; in series [2], above 100 µM. Besides, the EC50 in series [3] was 154 µM; in series [4] it was 547 µM; in series [5] it was above 300 µM; in series [6] it was above 300 µM; in series [7], 84.8 µM. The concentration for an effect of 90% (EC90) in series [3] is 246 µM; in series [4] it was above 900 µM; in series [5] it was above 300 µM; in series [6], above 300 µM; in series [7], 213 µM. Moreover, the “Selectivity index B. subtilis” value in series [3] is on record as 3.6. Besides, the “Selectivity index E. coli” value in series [4] stood at 1.0. Further, the “Selectivity index P. caledonica” value in series [7] was 6.5.
In series [1], `N=C(N)Nc1ccc2c(c1)CCN2C(=O)c1ccc(-c2ccc(NC(=N)N)cc2C(F)(F)F)o1` [Compound 18, (5-(2-trifluoromethy-4-guanidinophenyl)furan-2-yl)(5-guanidinoindolin-1-yl)methanone] yielded an EC50 at 24 h of 123 µM. This compound showed a concentration giving a half-maximal response (EC50) at 24 h in series [2] of 508 µM. Also, in series [3], the EC50 was 9.6 µM, the EC90 came to 13.6 µM and the “Selectivity index B. subtilis” value is 32.9. For the same compound, in series [4], the half-maximal effective concentration (EC50) amounted to 42.3 µM, the concentration for an effect of 90% (EC90) was 58.3 µM and the “Selectivity index E. coli” value is recorded as 7.5. Also, in series [5], the half-maximal effective concentration (EC50) was 10.1 µM, the concentration for an effect of 90% (EC90) was determined as 22.2 µM and the “Selectivity index P. putida” value was found to be 31.3. Also, in series [6], the EC50 was found to be 94.6 µM, the 90% effect concentration (EC90) was 120 µM and the “Selectivity index P. carotovorum” value is reported as 3.3. In series [7], the EC50 was 12.6 µM, the concentration for an effect of 90% (EC90) stood at 176 µM and the “Selectivity index P. caledonica” value worked out at 25.1.
Consider `Nc1c(Nc2ccc(-c3ccc(-c4ccc(Nc5c(N)c(=O)c5=O)cc4)o3)cc2)c(=O)c1=O` [Compound 12, 2,5-Bis(4-((3,4-dioxo-2-(amino)cyclobut-1-en-1-yl)amino)phenyl)furan], for which the concentration giving a half-maximal response (EC50) at 24 h in series [1] and in series [2] was above 1000 µM throughout. Also, the concentration for a half-maximal effect (EC50) in series [3], in series [4], in series [5], in series [6] and in series [7] was above 300 µM throughout. Besides, the EC90 in series [3], in series [4], in series [5], in series [6] and in series [7] was above 300 µM throughout.
